This is an account of results in patent publication US10201507B2, “Modulators of intracellular chloride concentration for treating fragile X syndrome” (NEUROCHLORE, priority 2012, dated 2019).

Entries after “also recorded” stand apart in the source; their conditions may differ.

Test [1] deals with CA3 pyramidal cells. In words: Single GABAA channel recordings of driving force of GABA (DFGABA) in hippocampal slices, drug applied to slice. Format: cell-based, mouse. The note with it: FXS neurons at P0 (birth); oxytocin 1 μM. The procedure:
Mice lacking Fmr1 (referred to as Fmr1^−/−) were bred in our animal facility. […] For all experiments, Fmr1^−/− mice were used with wild-type littermates as a control group. The offspring were used for experiments at E18, P0, P2, P4, P7, P9, P15 and P30. Experiments were carried out on offspring of either sex and in a blind manner at E18 and P0.
Experiments were performed on fetuses and neonatal wild type and Fragile X mice from the embryonic day […] to the postnatal day P38 (term is E21). All of the research was performed in compliance with the national guidelines on human care and use of laboratory animals and approved by INSERM.
Hippocampal slices (300-500 μm thick) were prepared using a Microm tissue slicer (International GmbH, Germany) as described previously (Tyzio et al., 2006, 2008). Slices were kept in oxygenated (95% O2/5% CO2) artificial cerebrospinal fluid (ACSF) of the following composition (in mM): NaCl 126, KCl 3.5, CaCl2 2.0, MgCl2 1.3, NaHCO3 25, NaH2PO4 1.2 and glucose 11 (pH 7.4) at room temperature (20-22° C.) at least 1 hour before use.
For recordings, slices were placed into a conventional fully submerged chamber superfused with ACSF at a rate of 2-3 ml/min at room temperature. Patch clamp recordings from visually identified CA3 pyramidal cells in cell-attached configuration were performed using EPC-10 amplifier (HEKA Elektronik Dr. Schulze GmbH, Lambrecht/Pfalz, Germany). Patch pipette solution for recordings of single GABAA channels contained (in mM): NaCl 120, KCl 5, TEA-Cl 20, 4-aminopyridine 5, CaCl2 0.1, MgCl2 10, glucose 10, Hepes-NaOH 10 buffered to pH 7.2-7.3 and GABA 2 μM. Analysis of currents through single channels and current-voltage relationships were performed using Clampfit 9.2 (Axon Instruments, Union City, Calif.). Recordings were digitized (10 kHz) online with Digidata-1200 interface card (Axon Instruments, Union City, Calif.) and analyzed offline with Axon package, MiniAnalysis (S (Synaptsoft, Decatur, Ga.), and Origin (Microcal Software, Northampton, Mass.). […]

Test [2] has as its system hippocampal slices. The test is described as follows: Extracellular field potentials / spike frequency in hippocampal slices at P15 on isoguvacine. Format: cell-based, mouse. Particulars: for normalized spike frequency: P15, isoguvacine (10 μM). An excerpt: Recording were made in the hippocampal slices using tungsten wire electrodes (diameter: 50 μm, California Fine Wire, Grover Beach, Calif.) and a low-noise multichannel DAM-8A amplifiers (WPI, GB; […]; gain: ×1000). The signals were digitized using an analogue-to-digital converter (Digidata 1440A, Axon Instruments, USA). pCLAMP 10.1, Clampfit 10.1 (Axon Instruments, USA), MiniAnalysis 6.03 (Synaptosoft, Decatur, Calif.) and Origin 7.5 (Microcal Software, USA) programs were used for the acquisition and analysis of the synaptic activities. Sampling interval per signal was 100 microseconds (10 kHz).
To test whether depolarizing actions of GABA were associated with neuronal excitation, the effect of the GABAA receptor agonist isoguvacine was tested. […] To test whether maternal treatment with bumetanide before delivery switches the action of GABA from excitatory to inhibitory in offsprings at P15, pregnant females were treated orally 1 day before delivery with bumetanide (2-2.5 mg/kg in drinking water) and juvenile offspring neurons recorded at P15. […] Therefore, excitatory actions of GABA during delivery produce long term deleterious effects on electrophysiological parameters of FXS juvenile neurons. In FXS mice, GABAergic inputs are excitatory and contribute to hyperexcitability of the network. Bumetanide decreases [Cl^−]i and consequently reduces contribution of excitatory GABAergic inputs in the overall network activity.

As for `CC[C@H](C)[C@@H]1NC(=O)[C@H](Cc2ccc(O)cc2)NC(=O)[C@@H](N)CSSC[C@@H](C(=O)N2CCC[C@H]2C(=O)N[C@@H](CC(C)C)C(=O)NCC(N)=O)NC(=O)[C@H](CC(N)=O)NC(=O)[C@H](CCC(N)=O)NC1=O` [oxytocin], the “Effect on DFGABA (in words)” value in test [1] was “shift it to hyperpolarization; also recorded: shifted DFGABA”.

Consider `O=C(O)C1=CCNCC1` [isoguvacine], for which the normalized spike frequency in test [2] (FXS mice) is on record as 165.8±13.5%; in test [2] (WT mice), 67.9±6.1%. In addition, the “Effect on field potential recordings (in words)” value in test [2] (naive neurons, P15, isoguvacine 2 μM) was “inhibited or did not affect field potential recordings”.
